# Data reported in a melting point compilation (Tetko et al.; mined from patent text by program, amines drawn as free bases though some values may be those of a salt).
row,melting point,SMILES
1,132 to 133 °C,CCOC(=O)C(C)(C)NC(=O)c1nnc2ccc(Cl)nn12
2,240 to 242 °C,CC(C)(C)OC(=O)N1CCN(c2nc(N)c3nc(-c4ccccc4)c(N)nc3n2)CC1
3,125 to 130 °C,c1cc(-c2n[nH]c3c2Cc2ccc(CN4CCNCC4)cc2-3)cs1
4,128 to 130 °C,CS(=O)(=O)c1cnc(Cl)c(CCC(=O)c2ccc(Cl)c(Cl)c2)c1
5,262 to 263 °C,CCn1nc(-c2ccccc2)c(C(C)=O)c(Nc2ccc(O)c3ncccc23)c1=O
6,118 °C,CC12CCC(C(=Cc3ccccc3[N+](=O)[O-])C1=O)C2(C)C (stereo not drawn)
7,148 to 150 °C,CSc1c(C)[nH]c2cccc([N+](=O)[O-])c12
8,104 to 106 °C,Cc1cc(OCc2ccccc2)c(C)cc1OCCCC(C)(C)C(=O)O
9,122 to 123 °C,CCOC(=O)c1cn(CC)c2nc(C)ccc2c1=O
10,110 to 111 °C,O=C(c1ccccc1)c1nsc(N2CCN(c3ccccn3)CC2)n1
11,122 to 124 °C,Clc1ccc2nc(CN3CCN(c4ccc(Cl)c(Cl)c4)CC3)cn2c1
12,259 to 261 °C,Cn1cc(C2=C(c3cn(C)c4c([N+](=O)[O-])cccc34)C(=O)NC2=O)c2ccc(F)cc21
13,219 to 222 °C,CCCCn1nc2c(N)nc3ncccc3c2c1CC(C)C
14,172 to 173 °C,Cn1cc2c(n1)-c1cnn(C)c1CC2(C)C
15,197 to 199 °C,COc1ccc(OC)c2c(Nc3ccc(Cl)cc3F)c(C#N)cnc12
16,122 to 124 °C,CC1=C(O)C(=O)C(C)(CC2(O)C=CC=CC2)O1 (stereo not drawn)
17,192 to 194 °C,CCOCc1nc2c(N)nc3cc(OCc4csc(-c5cccs5)n4)ccc3c2n1CC(C)(C)O
18,95 °C,c1ccc(-c2ccc(CCCN3CCN(c4ccccc4)CC3)o2)cc1
19,144 to 148 °C,O=C(O)C1COc2ccc(Cl)c(Cl)c2O1 (stereo not drawn)
20,213 to 215 °C,O=C(/C=C/c1ccc(Br)cc1)c1cnc2sccn12

row,melting point,SMILES
1,219 to 226 °C,O=c1cnc(-c2c(F)cccc2F)n[nH]1
2,93 to 96 °C,COCCOc1ccc(CC(OC)C(=O)O)c(Oc2ncc(C(F)(F)F)cc2Cl)c1 (stereo not drawn)
3,107 to 109 °C,CCN(CC)CCNC(=O)c1cccc2nc3cc(Br)ccc3nc12
4,119 to 123 °C,CC(Oc1ccc(Cl)cc1Cl)c1nnc(N)s1 (stereo not drawn)
5,101 to 102 °C,Nc1cnccc1C(=O)Nc1ccc(-n2nc(C(F)(F)F)cc2C(F)(F)F)cc1
6,102 to 103 °C,COC(=O)[C@H](Cc1cc(I)c(OCCCBr)c(I)c1)NC(=O)OC(C)(C)C
7,133 to 135 °C,COc1cc(N2CCN(C(=O)Cn3nc(C4=NCCN4)c4cccnc43)CC2)ccc1Cl
8,130 to 131 °C,O=[N+]([O-])c1cc2c(c3c([N+](=O)[O-])cccc13)C(CCl)CN2 (stereo not drawn)
9,257 to 258 °C,CCc1cc(C(C)=O)c(O)c(C(=O)Nc2nnn[nH]2)c1
10,227 to 228 °C,Cc1cc(C(=O)Nc2cnccc2C)c2c(C)nn(-c3ccccc3)c2n1
11,173 to 174 °C,O=C(O)Cc1csc(-c2ccccc2O)n1
12,165 to 167 °C,COc1cc(C(=O)C(=O)O)cc([N+](=O)[O-])c1O
13,129 to 130 °C,COC(=O)c1nc(OC)c2ccccc2n1
14,209 to 212 °C,COc1cc(Cc2cnc(N)nc2N)c2cc(C)oc2c1OC
15,135 to 138 °C,Cc1nnc2n1-c1sc(CCCN3CCOCC3)cc1C(c1ccccc1Cl)NC2 (stereo not drawn)
16,127 to 128 °C,CSC(=NNCCCCc1ncc(Br)cc1C)NC#N
17,125 °C,O=C(Cl)c1cn(CCCCl)c(=O)c2cc(Cl)ccc12
18,> 310 °C,Nc1ccc(Br)cc1CC1NC(=O)NC1=O (stereo not drawn)
19,250 to 251 °C,CNC(=O)Cn1nc(-c2ccc(OC)cc2)cc(C(=O)NC)c1=O
20,114 to 117 °C,Cc1c(C)c2c(c(C)c1O)C(c1ccc(C(C)C)cc1)C1(CCN(C)CC1)O2 (stereo not drawn)

# The next lines start with the molecule.
row,SMILES,melting point
1,NC(=O)N(O)CCNC(=O)c1ccccc1Oc1ccccc1,182 to 185 °C
2,CCNC(=O)c1sc(-n2ccc(OCc3ccccc3)cc2=O)cc1C,158 to 160 °C
3,NC(=O)NCC1CCCc2cc(NS(=O)(=O)c3cccc(F)c3)ccc21 (stereo not drawn),162 to 163 °C
4,CCONC(=O)c1cc(NCC2CCN(Cc3ccccc3)CC2)ccn1,125 to 130 °C
5,CCCCCCCCOc1ccc(C(=O)Nc2cccc(Cl)c2Cl)cc1,104 to 106 °C
6,COc1cccc(OC)c1-c1cc(C(=O)NC2(C(=O)O)C3CC4CC(C3)CC2C4)nn1-c1ccc(NC=O)c2ccccc12 (stereo not drawn),270 °C
7,C#Cc1ccc(NC(=O)N[C@H](CCC)C(=O)Nc2ccc(N3CCOCC3=O)cc2)cc1,182 °C
8,COc1ccc(N(C(=O)c2c3ccccc3nc3ccccc23)S(=O)(=O)c2ccc(CCC(=O)ON3C(=O)CCC3=O)cc2)c(OC)c1,105 °C
9,Cc1ccc(C(=O)c2cccc(S)n2)cc1,179 to 181 °C
10,N#Cc1nn(-c2c(Cl)cc(C(F)(F)F)cc2Cl)c(N)c1-c1onc(Br)c1Br,279 °C
11,CCCC1CCc2c(c(F)c(F)c3oc(C)cc23)O1 (stereo not drawn),75 °C
12,CC(c1oc2ccccc2c(=O)c1-c1cccc(F)c1)n1nc(-c2ccc(O)c(F)c2)c2c(N)ncnc21 (stereo not drawn),244 to 247 °C
13,O=S(=O)(Nc1cc(C(F)(F)F)ccc1-c1cc(Oc2ccc3cccnc3c2)ncn1)c1ccccc1,168 to 170 °C
14,O=C(CCc1ccccc1)N1CCN(C(=O)C(Cc2ccc(O)cc2)NS(=O)(=O)c2cccc3cnccc23)CC1 (stereo not drawn),172 to 178 °C
15,COC1(c2cc(F)cc(Sc3ccc(CONC(N)=O)cc3)c2)CCOCC1,104 to 105 °C
16,O=C(NCCc1ccccc1)Nc1ccc([N+](=O)[O-])cc1O,189 °C
17,Cc1sc2c(c1C)C(C1CCCCC1)=NCC(=O)N2,205 °C
18,Cc1nc2scc(-c3ccc(F)cc3)n2c(=O)c1CCN1CCC(c2noc3cc(F)ccc23)CC1,119 to 122 °C
19,Cc1cccc(C(=O)NCC2CC2)c1NC(=O)c1cc(C(F)(F)F)nn1-c1ncccc1Cl,199 °C
20,O=C(O)c1cn(-c2ccc(F)cc2F)c2c(F)c(N3Cc4ccc(Br)cc4C3)c(F)cc2c1=O,251 to 257 °C

row,SMILES,melting point
1,CSc1sccc1C#N,112 to 115 °C
2,CC(=O)c1ccc(Nc2cnc3c(NCc4ccccc4)nc(NCCO)nc3c2)cc1,125 to 126 °C
3,O=C1C2CN(Cc3ccccc3)CC2C(=O)N1Cc1ccccc1 (stereo not drawn),100 °C
4,C[Si](C)(CCO)Cc1ccccc1,132 to 133 °C
5,NC(=O)c1[nH]c2ccc(Cl)cc2c1S(=O)(=O)c1ccccn1,244 to 246 °C
6,Nc1ccc(C(=O)c2cccc(F)c2)cc1,98 to 100 °C
7,COc1ccc2c3c1OC1C4(CCC5(F)C(C2)N(C(=O)C2CC2)CCC315)OCCO4 (stereo not drawn),191 to 193 °C
8,O=C(O)c1cc(C(F)(F)F)ccc1Sc1ccccc1,140 to 145 °C
9,O=C(O)c1cn(C2COC2)c2cc(N3CCNCC3)c(F)c(O)c2c1=O,266 to 273 °C
10,CCCCc1nc2cccnc2n1-c1ccc(OCc2ccc(OC)c(OC3CC4CCC3C4)c2)cc1 (stereo not drawn),130 to 132 °C
11,CCCCSc1nc(N)c(C#N)s1,115 to 117 °C
12,CCOCn1c(C(F)(F)F)c(C#N)c2ccc(Cl)c(Cl)c21,122 to 127 °C
13,O=C(Nc1nccs1)c1nc(-c2ccc(CN3CCOCC3)cc2)[nH]c1-c1ccc(Cl)cc1,253 to 255 °C
14,NP(N)(=O)NC(=O)c1cccnc1,280 to 283 °C
15,COc1ccc(C(C)C)cc1-c1cc(-c2nnnn2C2CCN(C(=O)OC(C)(C)C)CC2)c(OCc2ccccc2)cc1OCc1ccccc1,77 to 81 °C
16,O=C(N[C@@H](Cn1cccn1)C(=O)O)OCc1ccccc1,166 to 168 °C
17,COc1cc(C(=O)O)cc(OC)c1-c1ccc(C[C@H](NC(=O)c2c(Cl)cccc2Cl)C(=O)O)cc1,277 to 278 °C
18,O=C(O)c1ccc2nc(/C=C/c3ccccc3)cc(=O)n2c1,293 to 295 °C
19,CCCN(CCC)C(=O)COC1Cc2cccc(OCC(O)CNC(C)(C)C)c2CC1OCC(=O)N(CCC)CCC (stereo not drawn),124 to 134 °C
20,CCCCCCCCCCCCCCCCCCOc1cccc2c(O)cccc12,90 to 92 °C

row,SMILES,melting point
1,CCC(CC)N(O)C(=O)Nc1ccc(C)c(NC(=O)N(O)C(CC)CC)c1,175 to 177 °C
2,CCCCCCCNC(=O)Nc1ccc(F)cc1C(=O)NC1CCN(C(c2ccccc2)c2ccccc2)CC1,208 to 210 °C
3,CN(C)CCc1c[nH]c2ccc([N+](=O)[O-])cc12,132 to 135 °C
4,CNC(=O)Nc1snc(N(C)C)c1C(N)=O,221 °C
5,Cn1cccc1C(=O)Nc1cccc(/C=C/C(=O)O)c1,202 to 204 °C
6,CCCCCCCCCCCCCCC(CCC(=O)OCc1ccccc1)(C(=O)O)C(=O)O,47 to 49 °C
7,Cc1cnc2ccc3c(c2c1)OC(CN1CC=C(c2c[nH]c4ccccc24)CC1)CO3 (stereo not drawn),211 to 213 °C
8,COCCOc1ccnc2c(NC(=O)c3c(Cl)cccc3Cl)cccc12,150 to 152 °C
9,O=C(NCC(F)(F)F)C1c2cc(F)ccc2-c2c(CCCCN3CCC(N4C(=O)c5ccccc5C4=O)CC3)cc(F)cc21 (stereo not drawn),186 to 188 °C
10,Cc1n[nH]c2cc(-c3ccc4nnn(Cc5ccc6ncccc6c5)c4n3)ccc12,136 to 137 °C
11,COc1ccc(Nc2ccc(Nc3ncnc4cc(-c5ccccc5)sc34)cc2)cc1OC,160 to 161 °C
12,N#Cc1ncn2c1N(C(=O)CN1CCN(C(c3ccccc3)c3ccc(Cl)cc3)CC1)CC=C2c1cccc(C(F)(F)F)c1 (stereo not drawn),105 to 107 °C
13,O=C(CCCCCBr)c1ccccc1,35 to 36 °C
14,COc1cccc(/C(=C/C=C/C(=O)O)c2cccc(F)c2)c1,151 to 153 °C
15,CC12CCC3c4ccccc4CCC3C1CCC2NCc1ccccc1 (stereo not drawn),71 to 74 °C
16,COc1cc(N)c(Cl)cc1C(=O)Nc1cc(OC)c(C(=O)N[C@H]2CCN(CCCOc3ccc(F)cc3)C[C@H]2OC)cc1Cl (relative stereo),182 °C
17,CN(C)C(=O)Nc1ccc(O)cc1,178 to 179 °C
18,Clc1ccc2c(c1)C(c1ccccc1)=NCc1nccn1-2,146 to 148 °C
